In ChEMBL document CHEMBL5390243, “Catecholamine Derivatives: Natural Occurrence, Structural Diversity, and Biological Activity” (J Nat Prod, 2023):
In brackets after ≈: the same amount, converted by molar mass. Blank lines part the entries; values can stand above or below the compound they belong to.

Legend:
[1] = biological target: Beta-1 adrenergic receptor (Homo sapiens) (UniProt P08588); assay: Agonist activity at ARbeta1 (unknown origin) expressed in CHO-K1 cells co-expressing G alpha 15 assessed as inhibition of isoproterenol induced calcium response upto 100 uM incubated for 10 mins by calcium mobilization assay relative to control; type: functional, cell-based; design: Activity: scale not given: the % may be the effect or the level left
Beta-1 adrenergic receptor (Homo sapiens), sequence (P08588 whole entry, looked up): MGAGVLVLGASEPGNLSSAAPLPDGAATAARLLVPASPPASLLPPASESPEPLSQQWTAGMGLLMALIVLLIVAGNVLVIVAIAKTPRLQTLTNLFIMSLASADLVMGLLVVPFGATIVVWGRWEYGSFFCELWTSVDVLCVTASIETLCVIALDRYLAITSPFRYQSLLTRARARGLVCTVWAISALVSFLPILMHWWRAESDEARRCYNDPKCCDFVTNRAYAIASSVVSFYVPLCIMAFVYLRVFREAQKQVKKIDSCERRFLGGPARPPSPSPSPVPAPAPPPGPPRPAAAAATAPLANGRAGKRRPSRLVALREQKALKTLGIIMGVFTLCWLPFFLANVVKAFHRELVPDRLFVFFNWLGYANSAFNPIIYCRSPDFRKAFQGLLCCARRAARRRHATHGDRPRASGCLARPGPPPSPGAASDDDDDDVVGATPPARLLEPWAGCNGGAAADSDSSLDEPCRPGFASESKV

[2] = system: SGC-7901; assay: Cytotoxicity against human SGC-7901 cells assessed as reduction in cell viability measured after 72 hrs by MTT assay; type: functional, cell-based; details: SGC-7901, 72 h
[3] = system: RAW264.7; assay: Antiinflammatory activity in LPS-induced mouse RAW264.7 cells assessed as reduction in COX-2 level at 100 uM pretreated for 1 hr followed by LPS stimulation and measured after 48 hrs by ELISA relative to control; type: functional; design: scale not given: the % may be the effect or the level left; details: time 49 hrs
[4] = biological target: Casein kinase I isoform delta (Homo sapiens, UniProt P48730); assay: Inhibition of N-terminal GST-tagged human recombinant CK1delta (1 to 294 residues) expressed in Escherichia coli incubated for 60 mins in presence of ATP by Kinase-glo luminescent assay
Casein kinase I isoform delta, sequence (P48730 whole entry, the tested form may be a part, canonical isoform): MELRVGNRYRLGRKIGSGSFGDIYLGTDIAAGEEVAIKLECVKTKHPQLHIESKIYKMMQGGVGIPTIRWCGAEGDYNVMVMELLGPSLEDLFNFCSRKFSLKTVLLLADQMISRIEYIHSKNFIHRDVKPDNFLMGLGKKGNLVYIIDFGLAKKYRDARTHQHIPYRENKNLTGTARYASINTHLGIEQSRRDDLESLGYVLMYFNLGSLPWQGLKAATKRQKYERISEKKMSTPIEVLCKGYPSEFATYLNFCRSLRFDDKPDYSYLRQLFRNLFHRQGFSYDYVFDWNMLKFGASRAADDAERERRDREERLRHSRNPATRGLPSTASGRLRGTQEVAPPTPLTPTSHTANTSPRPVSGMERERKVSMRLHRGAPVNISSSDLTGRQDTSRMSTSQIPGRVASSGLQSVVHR

[5] = biological target: Glycogen synthase kinase-3 beta (Homo sapiens, UniProt P49841); assay: Inhibition of N-terminal His6-tagged human recombinant GSK3beta expressed in baculovirus-infected Sf21 cells incubated for 60 mins in presence of ATP by ADP-glo analysis
Glycogen synthase kinase-3 beta, sequence (P49841 whole entry): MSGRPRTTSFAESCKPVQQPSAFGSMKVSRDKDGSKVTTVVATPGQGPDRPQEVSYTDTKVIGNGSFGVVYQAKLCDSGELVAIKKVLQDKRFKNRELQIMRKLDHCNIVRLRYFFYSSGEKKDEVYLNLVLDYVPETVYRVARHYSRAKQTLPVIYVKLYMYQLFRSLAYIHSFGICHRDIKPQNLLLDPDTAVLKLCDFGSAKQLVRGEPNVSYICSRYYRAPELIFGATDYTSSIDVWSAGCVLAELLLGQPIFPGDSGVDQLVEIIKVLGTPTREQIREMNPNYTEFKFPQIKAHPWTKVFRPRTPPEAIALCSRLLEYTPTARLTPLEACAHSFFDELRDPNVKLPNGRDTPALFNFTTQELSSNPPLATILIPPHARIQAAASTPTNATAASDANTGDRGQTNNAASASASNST

[6] = biological target: Cyclin-dependent kinase 5/CDK5 activator 1 (Homo sapiens, UniProt Q00535); assay: Inhibition of N-terminal full length human recombinant CDK5/p25 expressed in baculovirus-infected Sf21 cells incubated for 60 mins in presence of ATP by kinase-glo luminescent assay
Cyclin-dependent kinase 5/CDK5 activator 1, sequence (Q00535 whole entry): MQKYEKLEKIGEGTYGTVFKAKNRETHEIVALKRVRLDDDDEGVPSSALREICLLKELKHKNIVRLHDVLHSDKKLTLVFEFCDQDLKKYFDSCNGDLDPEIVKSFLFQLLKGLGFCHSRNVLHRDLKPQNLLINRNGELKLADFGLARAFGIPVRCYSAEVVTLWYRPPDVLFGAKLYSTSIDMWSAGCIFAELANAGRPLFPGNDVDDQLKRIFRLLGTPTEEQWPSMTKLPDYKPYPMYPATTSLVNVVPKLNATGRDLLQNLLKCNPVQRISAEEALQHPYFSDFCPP
Cyclin-dependent kinase 5/CDK5 activator 1, sequence (Q15078 whole entry, further chain): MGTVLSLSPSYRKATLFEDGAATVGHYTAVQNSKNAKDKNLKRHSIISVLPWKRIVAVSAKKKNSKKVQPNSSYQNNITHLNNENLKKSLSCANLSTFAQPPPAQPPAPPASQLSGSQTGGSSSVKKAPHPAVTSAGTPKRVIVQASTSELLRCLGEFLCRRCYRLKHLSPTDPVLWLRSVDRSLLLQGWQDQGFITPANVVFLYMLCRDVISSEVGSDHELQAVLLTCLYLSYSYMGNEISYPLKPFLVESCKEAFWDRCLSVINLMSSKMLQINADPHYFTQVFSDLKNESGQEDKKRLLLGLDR

[7] = system: RAW264.7; assay: Antiinflammatory activity against LPS-induced mouse RAW264.7 cells assessed as reduction in IL-6 mRNA expression at 10 uM by RT-PCR analysis; type: functional; design: scale not given: the % may be the effect or the level left
[8] = system: RAW264.7; assay: Anti-inflammatory activity against mouse RAW264.7 cells assessed as inhibition of LPS-induced NO production at 100 ng/ml pretreated with compound for 2 hrs followed by LPS stimulation and measured after 24 hrs by Griess reagent based analysis; type: functional; design: scale not given: the % may be the effect or the level left; details: time 26 hrs
[9] = biological target: T1, Acetylcholinesterase (Homo sapiens, UniProt P22303); assay: Inhibition of human AchE using acetylthiocholine iodide as substrate incubated for 20 mins by Ellman's assay; details: read-out: EC50 (the source's name)
T1 sequence (P22303 whole entry): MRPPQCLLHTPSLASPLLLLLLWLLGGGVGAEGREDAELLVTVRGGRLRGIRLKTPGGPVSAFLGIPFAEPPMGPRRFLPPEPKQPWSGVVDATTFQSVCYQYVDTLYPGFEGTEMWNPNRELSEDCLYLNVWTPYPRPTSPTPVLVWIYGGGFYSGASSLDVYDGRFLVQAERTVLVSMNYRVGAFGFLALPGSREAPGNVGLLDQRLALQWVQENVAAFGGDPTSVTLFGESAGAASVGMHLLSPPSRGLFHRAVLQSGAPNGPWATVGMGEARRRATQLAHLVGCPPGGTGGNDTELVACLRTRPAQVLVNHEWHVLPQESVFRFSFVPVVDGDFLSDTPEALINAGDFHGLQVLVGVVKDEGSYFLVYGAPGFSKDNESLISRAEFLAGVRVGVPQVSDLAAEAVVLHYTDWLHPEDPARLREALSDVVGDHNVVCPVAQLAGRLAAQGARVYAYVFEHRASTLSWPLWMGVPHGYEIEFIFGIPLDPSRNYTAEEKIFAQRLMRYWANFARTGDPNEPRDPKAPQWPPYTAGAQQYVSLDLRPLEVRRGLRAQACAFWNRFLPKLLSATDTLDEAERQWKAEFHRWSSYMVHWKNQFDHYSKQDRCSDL

[10] = system: Helicoverpa armigera; assay: Antifeedant activity against Helicoverpa armigera at 100 uM relative to control; type: functional
[11] = biological target: Cholinesterase (Homo sapiens, UniProt P06276); assay: Inhibition of butyrylcholinesterase (unknown origin)
Cholinesterase, sequence (P06276 whole entry): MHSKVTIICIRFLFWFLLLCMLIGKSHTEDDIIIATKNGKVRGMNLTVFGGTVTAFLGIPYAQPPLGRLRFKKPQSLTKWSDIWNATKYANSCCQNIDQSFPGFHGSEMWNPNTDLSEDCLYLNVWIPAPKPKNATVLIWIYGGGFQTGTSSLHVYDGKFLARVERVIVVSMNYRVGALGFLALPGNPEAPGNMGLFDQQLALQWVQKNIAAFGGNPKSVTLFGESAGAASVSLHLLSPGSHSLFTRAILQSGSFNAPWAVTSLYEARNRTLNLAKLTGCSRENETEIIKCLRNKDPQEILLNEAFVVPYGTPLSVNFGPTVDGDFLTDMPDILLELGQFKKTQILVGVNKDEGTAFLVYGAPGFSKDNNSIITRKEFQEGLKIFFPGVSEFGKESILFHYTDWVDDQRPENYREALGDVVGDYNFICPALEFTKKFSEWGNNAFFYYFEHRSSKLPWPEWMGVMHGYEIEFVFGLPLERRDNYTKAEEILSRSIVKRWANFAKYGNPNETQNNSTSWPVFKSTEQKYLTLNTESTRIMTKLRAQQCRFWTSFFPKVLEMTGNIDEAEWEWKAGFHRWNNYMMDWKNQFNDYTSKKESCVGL

[12] = biological target: T1, Acetylcholinesterase; assay: Inhibition of AChE (unknown origin) by Ellman's method
[13] = system: RAW264.7; assay: Anti-inflammatory activity against mouse RAW264.7 cells assessed as inhibition of LPS-induced NO production at 10 uM preincubated with compound for 2 hrs followed by LPS stimulation and measured after 24 hrs by Griess reagent based analysis; type: functional, cell-based
[14] = Metal chelating activity assessed as iron chelation by CAS assay
[15] = Antioxidant activity assessed as DPPH radical scavenging activity measured after 30 mins by UV-visible spectrophotometric analysis; type: functional
[16] = Antioxidant activity assessed as ABTS radical scavenging activity incubated for 30 mins by UV-visible spectrphotometric analysis; type: functional
[17] = system: MCF7; assay: Cytotoxicity against human MCF7 cells assessed as reduction in cell viability measured after 24 hrs by MTT assay; type: functional, cell-based; details: MCF7, 24 h
[18] = biological target: T1, Acetylcholinesterase; assay: Inhibition of Acetylcholinesterase (unknown origin) using acetylthiocholine iodide as substrate incubated for 20 mins by Ellaman's method

- IC50 [4]: 3.9 µM
- IC50 [5]: 3.1 µM
- IC50 [6]: 10 µM
Compound: O=c1oc2cc(O)c(O)cc2c2c3c4cc(O)c(O)cc4oc(=O)c3n(CCc3ccc(O)c(O)c3)c12

- Activity [1]: 24.2%
Compound: Oc1cc2c(cc1O)CCN=C2

- IC50 [4]: < 0.3 µM
- IC50 [5]: < 0.2 µM
- IC50 [6]: < 0.5 µM
Compound: O=C1C(c2ccc(O)c(O)c2)=c2c(c3c(n2CCc2ccc(O)c(O)c2)=C(c2ccc(O)c(O)c2)C(=O)c2cc(O)c(O)cc2-3)-c2cc(O)c(O)cc21

- EC50 [14]: 38.4 µM
Compound: NC[C@H](CCCCNC(=O)c1cccc(O)c1O)N1C(=O)c2c(ccc(O)c2O)[C@@H](c2ccc(O)cc2)[C@]1(O)C(=O)O

- IC50 [4]: < 1.4 µM
- IC50 [5]: < 0.5 µM
- IC50 [6]: < 2.4 µM
Compound: O=C1C(c2ccc(O)c(O)c2)=c2c(c3c(n2CCc2ccc(O)c(O)c2)=C(c2ccc(O)c(O)c2)C(=O)c2c-3ccc(O)c2O)-c2cc(O)c(O)cc21

- IC50 [4]: 1.5 µM
- IC50 [5]: 0.8 µM
- IC50 [6]: 2.6 µM
Compound: O=c1oc2cc(O)c(O)cc2c2c(-c3ccc(O)c(O)c3)cn(CCc3ccc(O)c(O)c3)c12

- EC50 [14]: 28 µM
Compound: NC[C@H](CCCCNC(=O)c1cccc(O)c1O)N1C(=O)c2c(ccc(O)c2O)[C@@H](c2ccccc2)[C@]1(O)C(=O)O

- IC50 [4]: > 10 µM
- IC50 [5]: 3 µM
- IC50 [6]: 1.1 µM
Compound: COc1cc2c(cc1O)CCn1c-2c(-c2ccc(O)c(O)c2)c2c3cc(O)c(OC)cc3oc(=O)c21

Further lines, the compound ahead of its results:

Compound: CC1=NCCc2cc(O)c(O)cc21
- Activity [1]: 15.9%

Compound: CC(=O)O[C@H]1C(=O)[C@@]2(C)[C@H]([C@H](OC(=O)c3ccccc3)[C@]3(O)C[C@H](OC(=O)[C@H](O)[C@@H](NC(=O)c4ccccc4)c4ccccc4)C(C)=C1C3(C)C)[C@]1(OC(C)=O)CO[C@@H]1C[C@@H]2O [PACLITAXEL]
- IC50 [2]: 0.15 µM

Compound: CS(=O)(=O)Nc1ccc([N+](=O)[O-])cc1OC1CCCCC1 [NS-398]
- Activity [3]: 97.1%

Compound: O=C(/C=C/c1ccc(O)c(O)c1)OC[C@H]1O[C@@H](O[C@H]2[C@H](O)[C@@H](OC(=O)/C=C/c3ccc(O)c(O)c3)[C@H](OC[C@H]3O[C@@H](Oc4cc5c(cc4O)C[C@@H](C(=O)O)N5C(=O)/C=C/c4ccc(O)cc4)[C@H](O)[C@@H](O)[C@@H]3O)O[C@@H]2CO)[C@H](O)[C@@H](O)[C@@H]1O
- Activity [7]: 74.2%
- Activity [8]: 38.8%

Compound: O=C(/C=C/c1ccc(O)c(O)c1)n1ccc2cc(O)c(O)cc21
- IC50 [9]: 44.8 µM

Compound: O=C(/C=C/c1ccc(O)cc1)NCCc1ccc(O)c(O)c1
- Activity [10]: 65.1%
- EC50 [11]: 41.3 µM
- EC50 [12]: 16.9 µM

Compound: C[C@@H]1C[C@H]2[C@@H]3CCC4=CC(=O)C=C[C@]4(C)[C@@]3(F)[C@@H](O)C[C@]2(C)[C@@]1(O)C(=O)CO [DEXAMETHASONE]
- IC50 [13]: 2 µM

Compound: O=C1O[C@H]([C@@H](O)CO)C(O)=C1O [ASCORBIC ACID]
- EC50 [15]: 9.72 µg/mL (≈ 55.2 µM)
- EC50 [16]: 4.89 µg/mL (≈ 27.8 µM)

Compound: COCc1ccc(C=O)n1CCc1ccc(O)c(O)c1
- IC50 [17]: 11.6 µM

Compound: N[C@@H](CO)C(=O)O [SERINE]
- IC50 [18]: 38.3 µM

Compound: O=C(/C=C/c1ccc(O)cc1)n1ccc2cc(O)c(O[C@@H]3O[C@H](CO)[C@@H](O)[C@H](O)[C@H]3O)cc21
- IC50 [9]: 58.8 µM

Compound: COc1cc(/C=C/C(=O)N2c3cc(O[C@@H]4O[C@H](CO[C@@H]5O[C@H](CO)[C@@H](O)[C@H](O)[C@H]5OC(=O)/C=C/c5cc(OC)c(O)c(OC)c5)[C@@H](O)[C@H](O)[C@H]4O)c(O)cc3C[C@H]2C(=O)O)ccc1O
- Activity [7]: 82.4%
- Activity [8]: 38.9%

Compound: O=C1c2c(ccc(O)c2O)CCn2cccc21
- IC50 [18]: 50.5 µM

Compound: COc1cc(O)c2c(c1)C(=O)c1cc(O)c(O)cc1CCN2
- IC50 [18]: 46 µM
